Experimental data reported in patent US9808434B2, “Compound for treating cancer and diabetes” (CITY OF HOPE, priority 2011, dated 2017).
One block for each molecule: values may come before it.

Assays:
A2058 cells = test: Mitochondrial membrane depolarization, TMRE; format: cell-based, human; conditions: 5 μM
Protocol: Cells (4×10^5/well in 6-well plates) cultured overnight were pre-incubated with the fluorescent indicator of MMP tetramethylrhodamine ester (TMRE, 200 nM) or DMSO control for 30 min at 37° C. in CO2 incubator. Cells were washed with pre-warmed normal DMEM media, and test compounds were added with fresh media for the indicated times. Cells were then trypsinized, collected, centrifuged for 5 min at 800×g, and washed once in pre-warmed PBS-0.2% BSA. Cells were then resuspended in the same buffer prior to flow cytometric analysis. A total of 30,000 cells were counted per sample and data was analyzed by Cyan ADP flow cytometer with excitation/emission of 488 nm/572 nm (Beckman Coulter, Inc., Brea, Calif.). For measurements of membrane potential in isolated mouse liver mitochondria, the organelles were pre-incubated with 200 nM TMRE in MASSRO buffer (MAS buffer supplemented with 10 mM succinate, 1 μM rotenone, and 1 μM oligomycin) for 20 min at 25° C. The mitochondria were centrifuged for 5 min at 3000×g and resuspended in MASSRO buffer. Mitochondria were then added to MASSRO buffer containing the indicated concentrations of COH-SR4, FCCP or DMSO vehicle control and incubated at room temperature for 15 min. […] TMRE fluorescence was measured with a microplate reader (Tecan Infinite M200 Pro, Tecan Group Ltd., Switzerland) using an excitation emission of 545ex/580em. […]

A2058 p^0 cells = test: Oxygen consumption rate in mitochondrial DNA-depleted cells; format: cell-based, human; conditions: compared with wild-type A2058; data not shown
Protocol: (§1) Oxygen consumption rate (OCR), a measure of OxPhos, and extracellular acidification rate (ECAR), a measure of lactate production by glycolysis, were measured using a Seahorse Xf^e96 Flux Analyzers (Seahorse Biosciences, North Billerica, Mass.). Cells were seeded in DMEM media in Seahorse 96-well tissue culture plates at a density of 5×10^3 cells/well and allowed to adhere for 24 h. Prior to the assay, the media was changed to unbuffered DMEM containing 25 mM glucose, 1 mM pyruvate and 1 mM glutamine, with 0.2% fatty acid/endotoxin-free BSA (w/v) (pH 7.4) and the cells were equilibrated for 30 min at 37° C. Test compounds were injected during the assay and OCR and ECAR were measured using 2-3 min measurement periods. Similar sets of experiments were performed in the presence of the mitochondria recoupler agent 6-KCH or the mitochondrial permeability transition (MPT) pore blocker CSA, where each compound was injected into the assay media prior to COH-SR4 or FCCP injection. […] OCR was measured throughout the different injections of the stressors and test compounds (indicated by arrows in the figures).
To verify that COH-SR4 acts directly on mitochondrial respiration, OCR in mitochondrial DNA-depleted (p^0) A2058 cells was measured, as well as freshly isolated mouse liver mitochondria and treated with either COH-SR4 or FCCP.

[1] = system: isolated mouse liver mitochondria; test: Oxygen consumption rate in isolated liver mitochondria; conditions: increasing concentrations
Protocol: Mitochondria were isolated from the livers of 10 week old male C57BL/6 mice. Mice were euthanized by CO2 inhalation followed by cervical dislocation. Livers were removed, minced with scissors, and immediately placed in ˜10 volumes of ice-cold mitochondria isolation medium (250 mM sucrose, 10 mM Tris-HCl, 1 mM EGTA, 1% fatty acid/endotoxin-free BSA, pH 7.4). The presence of BSA in the medium allowed the endogenous free fatty acids to be chelated from the homogenate suspension. The tissues were homogenized using 25-30 strokes in Potter-Elvehjem tissue grinder. Following centrifugation at 800×g for 10 min at 4° C., the fats/lipids were carefully aspirated, and the remaining supernatant was filtered through sterile 0.40 micron nylon mesh membrane and centrifuged at 8,000×g for 10 min at 4° C. […] The mitochondrial protein concentration was determined by the DC Protein Assay kit (Bio-Rad, Hercules, Calif.) with BSA as a standard. […]
Isolated mouse liver mitochondria (2 μg/well or 5 μg/well) were seeded on Seahorse 96-well plate, and respiration (OCR) was measured on mitochondria respiring either on pyruvate (10 mM) and malate (2 mM) or succinate (10 mM) and rotenone (2 μM) using a Seahorse 96 Flux Analyzers according to Rogers et al (90).

[2] = system: HepG2 liver carcinoma cells; test: Intracellular AMP:ATP ratio in HepG2; format: cell-based, human; conditions: 5 μM, 1 h
Protocol: ATP production from cells treated with test compounds were measured using the Luminescent ATP Detection Assay Kit. AMP, ATP and ADP were measured by UV-HPLC.
Total intracellular ATP production in cells treated with either 5 μM COH-SR4 or 5 μM FCCP was measured by bioluminescence assay and expressed as percentage of time-matched vehicle (DMSO) control (FIG. 84A). Intracellular AMP: ATP ratios increased in HepG2 liver carcinoma cells following 1 h treatment with either 5 μM COH-SR4 or 5 μM FCCP (FIG. 84B) and in liver of db/db mice treated with COH-SR4 (5 mg/kg B.W.) for 5 weeks (FIG. 84C). All data represented are mean±SEM, *P<0.05.

[3] = system: human melanoma cells (SK-MEL28, A2058, A101D); test: Oxygen consumption rate in melanoma cells, Seahorse; format: cell-based; conditions: 1-10 μM, monitored 2 h
Protocol: as §1, with “periods.” for “periods. Similar sets of experiments were performed in the presence of the mitochondria recoupler agent 6-KCH or the mitochondrial permeability transition (MPT) pore blocker CSA, where each compound was injected into the assay media prior to COH-SR4 or FCCP injection.”
The importance of mitochondria as oxygen sensors as well as producers of ATP and ROS has recently become a focal point of cancer research. […] OCR was continuously monitored for 2 h. Mitochondria recoupler 6-KCH (200 μM) was added to the assay system prior to injection of COH-SR4 (5 μM) as shown by arrows and OCR of A101D cells were monitored (FIG. 37B). […]

[4] = system: isolated mouse liver mitochondria; test: Mitochondrial swelling assay; conditions: potassium acetate buffer with valinomycin
Protocol: Mitochondrial swelling was measured in non-respiring mouse liver mitochondria incubated in buffered isotonic potassium acetate in the presence of valinomycin (24,25). […] Absorbance of the mitochondrial suspension before and after addition test compounds was measured every 10 seconds using a Varian Cary 300 spectrophotometer (Agilent Technologies, Santa Clara, Calif.). Swelling was recorded from the decrease in absorbance at 600 nm and expressed as percentage from initial reading after addition of mitochondria.
Mitochondrial membrane swelling was detected as decrease in absorbance at 600 nm following the addition of COH-SR4 or FCCP alone or in the presence of cysclosporin A (CSA, 1 μM) on isolated mouse liver mitochondria respiring on succinate (10 mM) in the presence of rotenone (1 μM) and valinomycin (5 μM) in potassium acetate buffer. […] Arrow indicates time of addition of test compounds into the mitochondria suspension.

melanoma cells [5] = test: MTT assay, melanoma cell lines of various mutational status; format: cell-based; conditions: 48 h, regardless of mutational status; read-out: IC50 values across melanoma cell lines
Protocol: Cell density measurements were performed using a hemocytometer to count reproductive cells resistant to staining with trypan blue. Approximately 20,000 cells were plated into each well of 96-well flat-bottomed micro-titer plates. After 12 h or 24 h incubation at 37° C., medium containing either COH-SR4 (ranging 0-200 μM) or elesclomol (ranging 0-20 μM) were added to the cells. After 24 h, 48 h or 96 h incubation, 20 μL of 5 mg/mL MTT were introduced to each well and incubated for 2 h. The plates were centrifuged and medium was decanted. Cells were subsequently dissolved in 100 μl DMSO with gentle shaking for 2 h at room temperature, followed by measurement of OD570 (91).

melanoma cells [6] = test: Colony formation assay, melanoma cells (elesclomol); format: cell-based, human; conditions: 5 μM, compared to COH-SR4
Protocol: Cell survival was evaluated using a standard colony-forming assay. In total, 1×10^5 cells/mL were incubated with COH-SR4 (1.5 μM or 5 μM) or elesclomol (5 μM) for 24 h, and aliquots of 50 or 100 μL were added to 60 mm size petri dishes, containing 4 mL culture medium. After 7 or 10 days, adherent colonies were fixed, stained with 0.5% methylene blue for 30 min and colonies were counted using the Innotech Alpha Imager HP (91).

[7] = system: B16-F0 and A2058 melanoma cells; test: TUNEL apoptosis assay, melanoma; format: cell-based; conditions: 5 μM, 24 h
Protocol: For TUNEL assay, 1×10^5 cells were grown on the cover slips for ˜12 h followed by treatment with COH-SR4 (5 μM or 10 μM) or elesclomol (5 μM) for 24 h. Apoptosis was determined by the labeling of DNA fragments with terminal deoxynucleotidyl-transferase dUTP nick-end labeling (TUNEL) assay using Promega fluorescence apoptosis detection system, and examined using Zeiss LSM 510 META laser scanning fluorescence microscope with filters 520 and 620 nm according to the protocol described previously (91). Photographs taken at identical exposure at ×400 magnification are presented.

Compound: N#CC(C#N)=NNc1ccc(OC(F)(F)F)cc1 [FCCP, reference compound]
mitochondrial membrane depolarization (TMRE fluorescence) (A2058 cells): induced mitochondrial membrane depolarization in a time-dependent manner
OCR in mitochondrial DNA-depleted cells (A2058 p^0 cells): failed to increase OCR
OCR of mitochondria respiring on pyruvate and malate or succinate-rotenone [1]: dose-dependently increased OCR of mitochondria
intracellular AMP:ATP ratios [2]: increased
oxygen consumption rate (OCR) [3]: caused an abrupt increase in OCR at the lower concentration and decreases OCR at higher (>3 μM) concentrations
mitochondrial swelling (absorbance at 600 nm) [4]: mitochondrial swelling was observed

IC50 (melanoma cells [5]): ≥ 5.8 µM
Compound: CN(NC(=O)CC(=O)NN(C)C(=S)c1ccccc1)C(=S)c1ccccc1 [elesclomol, reference compound]
colony forming ability of melanoma cells (melanoma cells [6]): did not significantly affect the colony forming ability
apoptosis (DNA fragmentation, TUNEL) [7]: not potent
